# Measurements reported in the supplement of paper PMC11208160.
# Assay: recombinant UMI read abundance after kanamycin selection (control-corrected) (log10(CPM+1)); higher = more efficient recombination; extreme values may be limits of the assay; sequences stand for … in AGTGCAGAGAAAATCGGCCAGTTTTCTCTGCCTGCAGTCCGCATGCCGTGGGACCCCTTGGGTTCTAACCTGTTGCCTAGATTTATGCAGCGGACTGCCTTTCTCCCAAAGTGATAAACCGG…AGGTTGGTTTCACT; site = the 11-nt donor
# In short: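 In Escherichia coli, a pool of donor and donor-binding-loop pairs, each with a 12-nt UMI, was tested for the IS621 bridge recombinase. Plating was on IPTG (0.07 mM) plus kanamycin, or without selection, in two replicates. Recombinant UMIs were amplified by PCR across the donor–target junction and sequenced, and counts were reported as log10(CPM+1) after averaging and control-derived scaling.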
# 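Note: IS621 bridge recombinase in Escherichia coli cells against a fixed T5 target plasmid.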
row,Sequence,recombinant UMI read abundance (log10)
1,CGATCGACATGGACCGGTTTTCCCGGTAATCCGTATTTGTG (site CGATCGACTTA),0.319
2,CGATCGACATGGACCGGTTTTCCCGGTAATCCGTATTTGTT (site AGATCGACTAA),0.0131
3,CGATCGACATGGACCGGTTTTCCCGGTAATCCGTATTTGTT (site CAATCGACTAA),0.0144
4,CGATCGACATGGACCGGTTTTCCCGGTAATCCGTATTTGTT (site CCATCGACTAA),0.0246
5,CGATCGACATGGACCGGTTTTCCCGGTAATCCGTATTTGTT (site CGAACGACTAA),0.0148
6,CGATCGACATGGACCGGTTTTCCCGGTAATCCGTATTTGTT (site CGACCGACTAA),0.509
7,CGATCGACATGGACCGGTTTTCCCGGTAATCCGTATTTGTT (site CGAGCGACTAA),0.0076
8,CGATCGACATGGACCGGTTTTCCCGGTAATCCGTATTTGTT (site CGATAGACTAA),0.00765
9,CGATCGACATGGACCGGTTTTCCCGGTAATCCGTATTTGTT (site CGATCAACTAA),0.0776
10,CGATCGACATGGACCGGTTTTCCCGGTAATCCGTATTTGTT (site CGATCCACTAA),0.0134
11,CGATCGACATGGACCGGTTTTCCCGGTAATCCGTATTTGTT (site CGATCGACTAA),0.6
12,CGATCGACATGGACCGGTTTTCCCGGTAATCCGTATTTGTT (site CGATCGACTAC),0.0194
13,CGATCGACATGGACCGGTTTTCCCGGTAATCCGTATTTGTT (site CGATCGACTAG),1.09
14,CGATCGACATGGACCGGTTTTCCCGGTAATCCGTATTTGTT (site CGATCGACTAT),0.188
15,CGATCGACATGGACCGGTTTTCCCGGTAATCCGTATTTGTT (site CGATCGACTCA),0.0164
16,CGATCGACATGGACCGGTTTTCCCGGTAATCCGTATTTGTT (site CGATCGACTGA),0.668
17,CGATCGACATGGACCGGTTTTCCCGGTAATCCGTATTTGTT (site CGATCGACTTA),0.271
18,CGATCGACATGGACCGGTTTTCCCGGTAATCCGTATTTGTT (site CGATCGCCTAA),0.00955
19,CGATCGACATGGACCGGTTTTCCCGGTAATCCGTATTTGTT (site CGATCGGCTAA),0.00691

row,Sequence,recombinant UMI read abundance (log10)
1,CGATCGACATGGACCGGTTTTCCCGGTAATCCGTATTTGTT (site CGATCGTCTAA),0.00706
2,CGATCGACATGGACCGGTTTTCCCGGTAATCCGTATTTGTT (site CGATCTACTAA),0.00746
3,CGATCGACATGGACCGGTTTTCCCGGTAATCCGTATTTGTT (site CGATGGACTAA),0.0255
4,CGATCGACATGGACCGGTTTTCCCGGTAATCCGTATTTGTT (site CGATTGACTAA),0.0149
5,CGATCGACATGGACCGGTTTTCCCGGTAATCCGTATTTGTT (site CGCTCGACTAA),0.0137
6,CGATCGACATGGACCGGTTTTCCCGGTAATCCGTATTTGTT (site CGGTCGACTAA),0.012
7,CGATCGACATGGACCGGTTTTCCCGGTAATCCGTATTTGTT (site CGTTCGACTAA),0.0124
8,CGATCGACATGGACCGGTTTTCCCGGTAATCCGTATTTGTT (site CTATCGACTAA),0.0176
9,CGATCGACATGGACCGGTTTTCCCGGTAATCCGTATTTGTT (site GGATCGACTAA),0.0103
10,CGATCGACATGGACCGGTTTTCCCGGTAATCCGTATTTGTT (site TGATCGACTAA),0.00749
11,CGATCGCCATGGACCGGTTTTCCCGGTAATCCGTATTTGCT (site CGATCATCTAG),0
12,CGATCGCCATGGACCGGTTTTCCCGGTAATCCGTATTTGCT (site CGATCGCCTAG),0.27
13,CGATCGGCATGGACCGGTTTTCCCGGTAATCCGTATTTGTT (site CGATCGACTAA),0.00492
14,CGATCGGCATGGACCGGTTTTCCCGGTAATCCGTATTTGTT (site CGATCGCCTAA),0.0111
15,CGATCGGCATGGACCGGTTTTCCCGGTAATCCGTATTTGTT (site CGATCGGCTAA),0.642
16,CGATCGGCATGGACCGGTTTTCCCGGTAATCCGTATTTGTT (site CGATCGTCTAA),0.324
17,CGATCTTCATGGACCGGTTTTCCCGGTAATCCGTATTTGCA (site CGATCATCTAG),0
18,CGATCTTCATGGACCGGTTTTCCCGGTAATCCGTATTTGCA (site CGATCTTCTTG),0.912
